Laboratory results: patent publication US11213030B2, “4-(3,4-dihydronaphth-1-yl or 2H-chromen-4-yl)-5-hydroxy-2H-pyradizin-3-ones as herbicides” (FMC Corporation, priority 2017, dated 2022)

Key:
Type in all cases: in vivo
[1] = system: galium (catchweed bedstraw, Galium aparine); assay: Test A postemergence, galium; details: 0 to 100 scale
Source text: (§1) Seeds of plant species selected from barnyardgrass (Echinochloa crus-galli), kochia (Kochia scoparia), ragweed (common ragweed, Ambrosia elatior), ryegrass, It. (Italian ryegrass, Lolium multiflorum), foxtail, green (green foxtail, Setaria viridis), and pigweed (Amaranthus retroflexus) were planted into a blend of loam soil and sand and treated preemergence with a directed soil spray using test chemicals formulated in a non-phytotoxic solvent mixture which included a surfactant. At the same time, plants selected from these weed species and also wheat (Triticum aestivum), corn (Zea mays), blackgrass (Alopecurus myosuroides), and galium (catchweed bedstraw, Galium aparine) were planted in pots containing the same blend of loam soil and sand and treated with postemergence applications of test chemicals formulated in the same manner. Plants ranged in height from 2 to 10 cm and were in the one- to two-leaf stage for the postemergence treatment. Treated plants and untreated controls were maintained in a greenhouse for approximately 10 d, after which time all treated plants were compared to untreated controls and visually evaluated for injury. Plant response ratings, summarized in Table A, are based on a 0 to 100 scale where 0 is no effect and 100 is complete control. A dash (-) response means no test result.

[2] = system: ragweed (common ragweed, Ambrosia elatior); assay: Test A preemergence, ragweed; details: 0 to 100 scale
Source text: as §1

kochia (Kochia scoparia) [3] = assay: Test A preemergence, kochia; details: 0 to 100 scale
Source text: as §1

[4] = system: sedge, umbrella (small-flower umbrella sedge, Cyperus difformis); assay: Test B flooded paddy test, umbrella sedge; details: Flood, 250 g ai/ha applied to paddy water, 2-leaf stage, 13 to 15 d; scale of 0 to 100 where 0 is no effect and 100 is complete control
Protocol: (§2) Plant species in the flooded paddy test selected from rice (Oryza sativa), sedge, umbrella (small-flower umbrella sedge, Cyperus difformis), ducksalad (Heteranthera limosa), and barnyardgrass (Echinochloa crus-galli) were grown to the 2-leaf stage for testing. At the time of treatment, test pots were flooded to 3 cm above the soil surface, treated by application of test compounds directly to the paddy water, and then maintained at that water depth for the duration of the test. Treated plants and controls were maintained in a greenhouse for 13 to 15 d, after which time all species were compared to controls and visually evaluated. Plant response ratings, summarized in Table B, are based on a scale of 0 to 100 where 0 is no effect and 100 is complete control. A dash (-) response means no test result.

[5] = system: wheat (Triticum aestivum); assay: Test A postemergence, wheat; details: 0 to 100 scale
Source text: as §1

kochia (Kochia scoparia) [6] = assay: Test A postemergence, kochia; details: 0 to 100 scale
Source text: as §1

[7] = system: ducksalad (Heteranthera limosa); assay: Test B flooded paddy test, ducksalad; details: Flood, 250 g ai/ha applied to paddy water, 2-leaf stage, 13 to 15 d; scale of 0 to 100 where 0 is no effect and 100 is complete control
Protocol: as §2

[8] = system: pigweed (Amaranthus retroflexus); assay: Test A preemergence, pigweed; details: 0 to 100 scale
Source text: as §1

[9] = system: barnyardgrass (Echinochloa crus-galli); assay: Test B flooded paddy test, barnyardgrass; details: Flood, 250 g ai/ha applied to paddy water, 2-leaf stage, 13 to 15 d; scale of 0 to 100 where 0 is no effect and 100 is complete control
Protocol: as §2

[10] = system: blackgrass (Alopecurus myosuroides); assay: Test A postemergence, blackgrass; details: 0 to 100 scale
Source text: as §1

[11] = system: barnyardgrass (Echinochloa crus-galli); assay: Test A preemergence, barnyardgrass; details: 0 to 100 scale
Source text: as §1

[12] = system: barnyardgrass (Echinochloa crus-galli); assay: Test A postemergence, barnyardgrass; details: 0 to 100 scale
Source text: as §1

[13] = system: ryegrass, It. (Italian ryegrass, Lolium multiflorum); assay: Test A postemergence, Italian ryegrass; details: 0 to 100 scale; for Plant response rating, Ryegrass, Italian: 500 g ai/ha
Source text: as §1

Foxtail, Giant [14] = assay: Test A postemergence, giant foxtail; details: 0 to 100 scale
[15] = system: ryegrass, It. (Italian ryegrass, Lolium multiflorum); assay: Test A preemergence, Italian ryegrass; details: 0 to 100 scale
Source text: as §1

rice (Oryza sativa) = assay: Test B flooded paddy test, rice; details: Flood, 250 g ai/ha applied to paddy water, 2-leaf stage, 13 to 15 d; scale of 0 to 100 where 0 is no effect and 100 is complete control
Protocol: as §2

Foxtail, Giant [16] = assay: Test A preemergence, giant foxtail; details: 0 to 100 scale
[17] = system: pigweed (Amaranthus retroflexus); assay: Test A postemergence, pigweed; details: 0 to 100 scale
Source text: as §1

corn (Zea mays) = assay: Test A postemergence, corn; details: 0 to 100 scale
Source text: as §1

[18] = system: ragweed (common ragweed, Ambrosia elatior); assay: Test A postemergence, ragweed; details: 0 to 100 scale
Source text: as §1

[19] = system: foxtail, green (green foxtail, Setaria viridis); assay: Test A preemergence, green foxtail; details: 31 g ai/ha, 0 to 100 scale
Source text: as §1

Row | Structure (SMILES) | Plant response rating, Galium ([1]; 125 g ai/ha) | Plant response rating, Galium ([1]; 500 g ai/ha) | Plant response rating, Ragweed ([2]; 125 g ai/ha) | Plant response rating, Kochia (kochia (Kochia scoparia) [3]; 125 g ai/ha) | Plant response rating, Sedge, Umbrella [4] | Plant response rating, Wheat ([5]; 125 g ai/ha) | Plant response rating, Kochia (kochia (Kochia scoparia) [6]; 125 g ai/ha) | Plant response rating, Ducksalad [7] | Plant response rating, Pigweed ([8]; 125 g ai/ha) | Plant response rating, Barnyardgrass [9] | Plant response rating, Blackgrass ([10]; 125 g ai/ha) | Plant response rating, Barnyardgrass ([11]; 125 g ai/ha) | Plant response rating, Barnyardgrass ([12]; 125 g ai/ha) | Plant response rating, Foxtail, Giant (Foxtail, Giant [14]; 125 g ai/ha) | Plant response rating, Ryegrass, It. ([15]; 125 g ai/ha) | Plant response rating, Rice (rice (Oryza sativa)) | Plant response rating, Foxtail, Giant (Foxtail, Giant [16]; 125 g ai/ha) | Plant response rating, Pigweed ([17]; 125 g ai/ha) | Plant response rating, Corn (corn (Zea mays); 125 g ai/ha) | Plant response rating, Ragweed ([18]; 125 g ai/ha) | also measured
1 | Cc1nn(C)c(=O)c(C2=CCC(C)(C)c3ccccc32)c1O [Compound 7] | 50 | 70 | 0 | 0 | 0 | 0 | 30 | 0 | 0 | 0 | 10 | 0 | 10 | 0 | 0 | 0 | 0 | 80 | 0 | 0 | Plant response rating, Ragweed ([2]; 500 g ai/ha): 0; Plant response rating, Kochia (kochia (Kochia scoparia) [3]; 500 g ai/ha): 0; Plant response rating, Wheat ([5]; 500 g ai/ha): 0; Plant response rating, Kochia (kochia (Kochia scoparia) [6]; 500 g ai/ha): 70; Plant response rating, Pigweed ([8]; 500 g ai/ha): 10; Plant response rating, Blackgrass ([10]; 500 g ai/ha): 10; Plant response rating, Barnyardgrass ([11]; 500 g ai/ha): 0; Plant response rating, Barnyardgrass ([12]; 500 g ai/ha): 30; Plant response rating, Ryegrass, It. ([13]; 125 g ai/ha): 30; Plant response rating, Ryegrass, Italian [13]: 80; Plant response rating, Foxtail, Giant (Foxtail, Giant [14]; 500 g ai/ha): 10; Plant response rating, Ryegrass, It. ([15]; 500 g ai/ha): 10; Plant response rating, Foxtail, Giant (Foxtail, Giant [16]; 500 g ai/ha): 0; Plant response rating, Pigweed ([17]; 500 g ai/ha): 90; Plant response rating, Corn (corn (Zea mays); 500 g ai/ha): 10; Plant response rating, Ragweed ([18]; 500 g ai/ha): 70
2 | CC1=C(c2c(O)c(Cl)nn(C)c2=O)c2cc(C)ccc2CC1 [Compound 8] | 90 |  | 30 | 10 | 95 | 0 | 50 | 90 | 100 | 60 | 30 | 60 | 80 | 80 | 10 | 0 | 70 | 100 | 20 | 100 | Plant response rating, Galium ([1]; 31 g ai/ha): 90; Plant response rating, Ragweed ([2]; 31 g ai/ha): 0; Plant response rating, Wheat ([5]; 31 g ai/ha): 0; Plant response rating, Kochia (kochia (Kochia scoparia) [6]; 31 g ai/ha): 40; Plant response rating, Pigweed ([8]; 31 g ai/ha): 10; Plant response rating, Blackgrass ([10]; 31 g ai/ha): 20; Plant response rating, Barnyardgrass ([11]; 31 g ai/ha): 0; Plant response rating, Barnyardgrass ([12]; 31 g ai/ha): 50; Plant response rating, Ryegrass, It. ([13]; 31 g ai/ha): 40; Plant response rating, Ryegrass, It. ([13]; 125 g ai/ha): 80; Plant response rating, Foxtail, Giant (Foxtail, Giant [14]; 31 g ai/ha): 60; Plant response rating, Ryegrass, It. ([15]; 31 g ai/ha): 0; Plant response rating, Foxtail, Green [19]: 0; Plant response rating, Pigweed ([17]; 31 g ai/ha): 90; Plant response rating, Corn (corn (Zea mays); 31 g ai/ha): 0; Plant response rating, Ragweed ([18]; 31 g ai/ha): 80
3 | COc1c(C)nn(C)c(=O)c1C1=CCC(C)(C)c2ccccc21 [Compound 6] | 0 | 0 | 0 | 0 | 0 | 0 | 0 | 0 | 0 | 0 | 0 | 0 | 0 | 0 | 0 | 0 | 0 | 0 | 0 | 0 | Plant response rating, Ragweed ([2]; 500 g ai/ha): 0; Plant response rating, Kochia (kochia (Kochia scoparia) [3]; 500 g ai/ha): 40; Plant response rating, Wheat ([5]; 500 g ai/ha): 0; Plant response rating, Kochia (kochia (Kochia scoparia) [6]; 500 g ai/ha): 0; Plant response rating, Pigweed ([8]; 500 g ai/ha): 0; Plant response rating, Blackgrass ([10]; 500 g ai/ha): 20; Plant response rating, Barnyardgrass ([11]; 500 g ai/ha): 30; Plant response rating, Barnyardgrass ([12]; 500 g ai/ha): 0; Plant response rating, Ryegrass, Italian [13]: 0; Plant response rating, Foxtail, Giant (Foxtail, Giant [14]; 500 g ai/ha): 0; Plant response rating, Ryegrass, It. ([15]; 500 g ai/ha): 0; Plant response rating, Foxtail, Giant (Foxtail, Giant [16]; 500 g ai/ha): 0; Plant response rating, Pigweed ([17]; 500 g ai/ha): 0; Plant response rating, Corn (corn (Zea mays); 500 g ai/ha): 0; Plant response rating, Ragweed ([18]; 500 g ai/ha): 20
